Experiments:
[1] = system: Human prostate cancer PC-3 cells; assay: Anti-proliferative effect, Alamar Blue assay, PC-3; type: cell-based; conditions: Homo sapiens, 96 h, 4-day incubation, read-out: PC3 antiproliferative activity pIC50 (converted)
Description: Human prostate cancer PC-3 cells obtained from the ATCC were cultured in HAM'S F12 medium supplemented with 1 mM Sodium Pyruvate, 1.5 g/L Sodium Bicarbonate, 50 μg/ml gentamicin, non-essential amino acids and 10% fetal calf serum.
(§1) Resazurin was purchased from Aldrich (Prod. No. 199303). Potassium ferrocyanide, potassium ferricyanide, KH2PO4 and K2HPO4 were purchased from Sigma (Prod. Nos. P9387, P8131, P5655 and P8281, respectively).
(§2) Potassium Phosphate Buffer 0.1 M (PPB) was made as follows: 2.72 gram KH2PO4 and 13.86 gram K2HPO4 were dissolved in 500 ml milli-Q H2O, the pH was adjusted to pH 7.4 and the volume was brought to 1 liter with milli-Q H2O; the buffer was filter sterilised and stored at room temperature. Resazurin stock solution (PPB-A) was prepared fresh by dissolving 45 mg resazurin in 15 ml PBS. 30 mM potassium ferricyanide (PPB-B) was prepared by dissolving 0.987 gram potassium ferricyanide in 100 ml PPB. 30 mM potassium ferrocyanide (PPB-C) was prepared by dissolving 1.266 gram potassium ferrocyanide in 100 ml PPB.
(§3) Mixture of PPB-A, PPB-B and PPB-C was prepared by mixing equal volumes of the respective solutions. Resazurin work solution (herein termed “Alamar Blue” solution) was prepared by diluting said mixture 20× (vol/vol) in PPB and filter sterilising; the Alamar Blue solution could be kept at 4° C. for a maximum of 2 weeks.
(§4) For experiments in 384 wells plates the cells were seeded at a density of 4.5×10^3 cells/ml in Falcon 384-well culture plates (Life Technologies, Merelbeke, Belgium), black with clear bottom, in 45 μl culture medium. Cells were allowed to adhere to plastic for 24 hours. The tested compound was pre-diluted (1/50 in culture medium) and 5 μl pre-diluted compound was added to the wells. Following 4-day incubation, 10 μl of the Alamar Blue solution was added to each well and the cells were further incubated for 4 hours (HCT116) or 24 hours (PC-3) at 37° C. The fluorescence intensity was measured for each well on a Fluorescence plate reader (Fluoroskan, Labsystems, 540 nm excitation and 590 nm emission)
(§5) The antiproliferative activity was calculated as percentage of remaining viable cells in treated versus control (untreated cells) conditions. Within an experiment, the result for each experimental condition is the mean of 3 replicate wells. When appropriate, the experiments were repeated to establish full concentration-response curves. When appropriate, IC50-values (concentration of the drug, needed to reduce cell growth to 50% of the control) were computed using probit analysis for graded data (Finney, D. J., Probit Analyses, 2nd Ed. Chapter 10, Graded Responses, Cambridge University Press, Cambridge 1962). Herein the effects of test compounds are expressed as pIC50 (the negative log value of the IC50-value) (see Table 3).

[2] = system: Human colon carcinoma HCT116 cells; assay: Anti-proliferative effect, Alamar Blue assay, HCT116; type: cell-based; conditions: Homo sapiens, HCT-116, 96 h, 4-day incubation, read-out: HCT116 antiproliferative activity pIC50 (converted)
Description: Human colon carcinoma HCT116 cells obtained from the ATCC were cultured in McCoy's 5A medium supplemented with 2 mM L-Glutamine, 50 μg/ml gentamicin and 10% heat inactivated fetal calf serum.
as §1, §2, §3, §4, §5

α-β-Tubulin = α-β-Tubulin polymerization assay; type: biochemical; conditions: inhibition of polymerization at 20 μM and 5 μM, reported as score
Description: The tubulin polymerization assay is an adaptation of an assay originally described by Bonne, D. et al. (J. Biol. Chem., 1985, 260:2819-25). The assay kit was purchased from Cytoskeleton, Inc. (catalogue number BK011) and the assay was performed as described by the supplier with the following modifications. The assay was run in a 384-well black Proxiplate (Perkin Elmer) and volumes were adapted accordingly. The reactions were carried out in a final volume of 10 μl. Compounds were added to 25 μl of the reaction mix in 96-well PP plates (Corning) on ice and 10 μl of this mixture was dispensed into duplicates of the 384-well Proxiplates pre-warmed to 37° C. in a Fluoroskan Ascent plate reader (Thermo Scientific). Fluorescence measurements were taken every minute for one hour. The maximum slope of each well was determined (linear regression through 4 consecutive points) and polymerization was calculated as a percentage of polymerization observed in the absence of compound. Compounds were first measured at a concentration of 20 μM and then at 5 μM for those showing more than 50% inhibition at 20 μM as compared to the polymerization observed in the absence of compound. Results are reported in Table F-2 as scores defined as: a compound showing 0 to 50% inhibition at 20 μM is reported as score 1; a compound showing more than 50% inhibition at 5 μM is reported as score 3.

[3] = system: human prostate cancer PC3 cells; assay: Eb1 cellular assay (Eb1 Comet assay); type: cell-based; conditions: 1 hour treatment, LAC = concentration where Eb1 foci absent in at least 50% of treated cells
Description: The Eb1 Comet assay relies on the detection of the Eb1 protein at the plus end of polymerizing microtubules (Mimori-Kiyosue, 2000) using indirect immunofluorescence. Disruption of microtubule dynamics through de-polymerization or stabilization results in a de-localization of Eb1 from the growing microtubule ends and this is visualized by the disappearance of Eb1 containing cytoplasmic foci.
Briefly, human prostate cancer PC3 cells obtained from the American Type Culture Collection were grown in 96-well plates (Greiner, cat. no. 655090) in HAM's F12 medium as recommended by the provider (ATCC). The cells were treated for 1 hour at 37° C. with compounds dissolved in DMSO (0.6% final DMSO concentration). The culture medium was then removed by aspiration and the cells were fixed by adding cold methanol (−20° C.). After a 15 minutes incubation at −20° C., the cells were washed twice with DPBS (Gibco) containing 0.5% Triton X-100. Mouse Eb1 antibody (BD Transduction Laboratories, cat. no. 610534) was added to the cells (1/250 dilution in DPBS containing 1% BSA) and incubated overnight at room temperature. The antibody was subsequently removed and the cells washed twice with DPBS, 0.5% Triton X-100. Secondary goat anti-mouse antibody conjugated to Alexa 488 fluorescent dye (Molecular Probes) was added at a 1/500 dilution in DPBS, 1% BSA and incubated for 1 hour at 37° C. The cells were washed twice with DPBS, 0.5% Triton X-100 and then DPBS containing 0.5% Triton X-100 and 1/5000 Hoechst 33342 (Molecular Probes) was added. Microscopy based Eb1 foci visualization was carried out using an IN Cell Analyser 1000 (Amersham Biosciences) using a 20× objective. Compound dependent microtubule disruption was visually determined by the disappearance in Eb1 foci. The lowest active concentration (LAC) was determined as the concentration where Eb1 foci were absent in at least 50% of the treated cells. Herein the effects of test compounds are expressed as pLAC (the negative log value of the LAC-value) (see Table 3).

| Structure (SMILES) | IC50 [1] [nM] | IC50 [2] [nM] | melting point [°C] | tubulin polymerization score (α-β-Tubulin) | Eb1 pLAC [3] |
| --- | --- | --- | --- | --- | --- |
| CCN1Cc2ccc([C@](C)(C#N)Cc3nc(OC)cc(OC)n3)cc2NC1=O (single isomer, unassigned) [Compound 1] | 79.4 | 39.8 | 95 |  | >7.5 |
| CCN1Cc2ccc([C@@](C)(C#N)Cc3ccccc3)cc2NC1=O [Compound 3] | > 10000 | > 10000 | 124 | 1 (a compound showing 0 to 50% inhibition at 20 μM is reported as score 1) |  |
| CCN1Cc2ccc([C@@](C)(C#N)Cc3cccc(C#N)c3)cc2NC1=O [Compound 5] | > 10000 | > 10000 | 152 | 1 (a compound showing 0 to 50% inhibition at 20 μM is reported as score 1) |  |

More lines, main results first:

| IC50 [1] [nM] | IC50 [2] [nM] | melting point [°C] | Structure (SMILES) | tubulin polymerization score (α-β-Tubulin) | Eb1 pLAC [3] |
| --- | --- | --- | --- | --- | --- |
| 501 | 794 | 210 | CN1Cc2ccc(C(C)(C#N)Cc3ccccc3)cc2NC1=O (centres unmarked) [Compound 7] | 3 (a compound showing more than 50% inhibition at 5 μM is reported as score 3) | 6.5 |
| 316 | 158 | 84.4 to 102.4 | C#Cc1cccc(CC(C)(C#N)c2ccc3c(c2)NC(=O)N(CC)C3)c1 (centres unmarked) [Compound 10] | 3 (a compound showing more than 50% inhibition at 5 μM is reported as score 3) | 7 |
| 501 | 200 | 83 | CCN1Cc2ccc(C(C)(C#N)Cc3cccc(I)c3)cc2NC1=O (centres unmarked) [Compound 8] | 3 (a compound showing more than 50% inhibition at 5 μM is reported as score 3) | 6.5 |
| 100 | 50.1 | 152 | CCN1Cc2ccc([C@](C)(C#N)Cc3cccc(C#N)c3)cc2NC1=O [Compound 6] | 3 (a compound showing more than 50% inhibition at 5 μM is reported as score 3) | 7 |

From US8168644B2, “Quinazolinone derivatives as tubulin polymerization inhibitors” (Janssen Pharmaceutica NV, priority 2008, dated 2012)
